Source: patent publication US20160244436A1, “NOVEL FUNCTIONALIZED 5-(PHENOXYMETHYL)-1,3-DIOXANE ANALOGS EXHIBITING CYTOCHROME P450 INHIBITION AND THEIR METHOD OF USE” (CORTENDO AB (PUBL), priority 2013, published 2016)

Columns and labels:
Assay type in all cases: cell-based
recombinant CYP-11 = target: T1, recombinant CYP-11 (Homo sapiens, UniProt P15538); experiment: Cyp11 assay: AD293 cells over-expressing recombinant CYP-11, cortisol formation from 11-deoxycortisol by LC/MS
T1 construct: expressed in transfected cells; host or cells: AD293
T1 sequence (P15538 25-503): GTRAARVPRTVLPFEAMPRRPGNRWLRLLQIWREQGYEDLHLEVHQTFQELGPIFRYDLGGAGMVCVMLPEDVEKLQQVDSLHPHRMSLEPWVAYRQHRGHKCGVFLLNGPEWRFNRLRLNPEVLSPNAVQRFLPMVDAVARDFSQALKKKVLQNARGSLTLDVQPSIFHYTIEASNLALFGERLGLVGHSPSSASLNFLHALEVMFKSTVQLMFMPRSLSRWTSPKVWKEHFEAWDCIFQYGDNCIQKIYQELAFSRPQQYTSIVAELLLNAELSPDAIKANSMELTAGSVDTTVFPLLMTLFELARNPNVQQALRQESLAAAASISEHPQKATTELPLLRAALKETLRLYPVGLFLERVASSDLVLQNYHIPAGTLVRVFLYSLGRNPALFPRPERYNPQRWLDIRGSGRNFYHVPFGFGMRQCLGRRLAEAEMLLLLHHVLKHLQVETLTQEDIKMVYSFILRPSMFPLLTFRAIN
Method: Cyp11 assay protocol: AD293 cells that stably over-express recombinant CYP-11 were seeded in 96 well plates coated with poly D-lysine (15,000 cell per well) and incubated at 37° C. for 24 hours in Dulbecco's Modified Eagle Medium (DMEM) with Fetal Bovine Serum (FBS) that is stripped of hormones by charcoal treatment. The media is then removed, the cells are washed once with Phosphate buffer saline solution, and 50 μL Dulbecco's Modified Eagle Medium (DMEM) with Fetal Bovine Serum (FBS) that is stripped of hormones by charcoal treatment is added. Compounds of the disclosure are then added to the wells in eight concentration spanning 10 μM to 4.5 nM, and the plates are incubated for an additional 60 minutes at 37° C. 11-deoxycortisol is then added (2.0 μM) and the plates are incubated for an additional 12 hours at 37° C. After incubation, 50 uL of the supernatant (medium) is transferred into a fresh plate and 150 uL of an acetonitrile solution containing 200 ng/ml of Telmisartan is added. The sample is mixed and then placed in a centrifuge at 2000 rpm for 5 minutes. 100 uL of the supernatant is transferred into a fresh 96 well deep well plate, 100 uL of 1:1 methanol:water was added, the solution was mixed and then analyzed by LC/MS for the presence of cortisol using an Agilent 1200 RRLC/ABSCIEX API4000 LC-MS or Shimadzu Prominance/ABSCIEX API4000 LC-MS to determine IC5os of the compounds of the disclosure.

recombinant CYP-21 = target: T2, recombinant CYP-21 (Homo sapiens, UniProt P08686); experiment: Cyp21 assay: AD293 cells over-expressing recombinant CYP-21, 11-deoxycortisol formation from 17α-OH Progesterone by LC/MS
T2 construct: expressed in transfected cells; host or cells: AD293
T2 sequence (P08686 1-495): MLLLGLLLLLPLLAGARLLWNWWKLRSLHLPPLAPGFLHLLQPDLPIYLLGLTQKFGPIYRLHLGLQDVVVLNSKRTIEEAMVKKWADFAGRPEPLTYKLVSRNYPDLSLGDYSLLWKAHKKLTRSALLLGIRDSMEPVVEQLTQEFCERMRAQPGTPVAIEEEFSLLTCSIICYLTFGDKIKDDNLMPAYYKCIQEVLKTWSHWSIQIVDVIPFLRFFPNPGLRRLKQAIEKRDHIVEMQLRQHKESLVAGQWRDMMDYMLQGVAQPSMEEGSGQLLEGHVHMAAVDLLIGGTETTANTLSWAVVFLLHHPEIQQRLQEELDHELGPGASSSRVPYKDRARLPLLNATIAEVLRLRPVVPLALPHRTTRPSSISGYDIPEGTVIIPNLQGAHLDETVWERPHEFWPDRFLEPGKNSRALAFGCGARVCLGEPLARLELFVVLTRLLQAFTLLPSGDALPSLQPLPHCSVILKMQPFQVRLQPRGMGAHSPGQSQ
Method: Cyp21 assay protocol: AD293 cells that stably over-express recombinant CYP-21 were seeded in 96 well plates coated with poly D-lysine (10,000 cell per well) and incubated at 37° C. for 24 hours in Dulbecco's Modified Eagle Medium (DMEM) with Fetal Bovine Serum (FBS) that is stripped of hormones by charcoal treatment. The media is then removed, the cells are washed once with Phosphate buffer saline solution, and 50 μL Dulbecco's Modified Eagle Medium (DMEM) with Fetal Bovine Serum (FBS) that is stripped of hormones by charcoal treatment is added. Compounds of the disclosure are then added to the wells in eight concentration spanning 10 μM to 4.5 nM, and the plates are incubated for an additional 60 minutes at 37° C. 17α-OH Progesterone is then added (1.0 μM) and the plates are incubated for an additional 45 minutes at 37° C. After incubation, 50 uL of the supernatant (medium) is transferred into a fresh plate and 150 uL of an acetonitrile solution containing 200 ng/ml of Telmisartan is added. The sample is mixed and then placed in a centrifuge at 2000 rpm for 5 minutes. 100 uL of the supernatant is transferred into a fresh 96 well deep well plate, 100 uL of 1:1 methanol:water was added, the solution was mixed and then analyzed by LC/MS for the presence of 11-deoxycortisol using an Agilent 1200 RRLC/ABSCIEX API4000 LC-MS or Shimadzu Prominance/ABSCIEX API4000 LC-MS to determine IC5os of the compounds of the disclosure.

[1] = system: Bile Acid (Cyp7A surrogate); experiment: Bile acid secretion / synthesis inhibition (Cyp7A surrogate)

IC50 (recombinant CYP-11): 0.012 µM | IC50 (recombinant CYP-21): 0.208 µM | IC50 [1]: 0.88 µM
SMILES: CC(=O)N1CCN(c2ccc(CO[C@H]3CO[C@](Cn4ccnc4)(c4ccc(Cl)cc4Cl)OC3)cc2)CC1 [drawing 112]
